One test has as its target T1, alpha2A-adrenoceptor (Homo sapiens, UniProt P08913).
T1 sequence (P08913 1-465): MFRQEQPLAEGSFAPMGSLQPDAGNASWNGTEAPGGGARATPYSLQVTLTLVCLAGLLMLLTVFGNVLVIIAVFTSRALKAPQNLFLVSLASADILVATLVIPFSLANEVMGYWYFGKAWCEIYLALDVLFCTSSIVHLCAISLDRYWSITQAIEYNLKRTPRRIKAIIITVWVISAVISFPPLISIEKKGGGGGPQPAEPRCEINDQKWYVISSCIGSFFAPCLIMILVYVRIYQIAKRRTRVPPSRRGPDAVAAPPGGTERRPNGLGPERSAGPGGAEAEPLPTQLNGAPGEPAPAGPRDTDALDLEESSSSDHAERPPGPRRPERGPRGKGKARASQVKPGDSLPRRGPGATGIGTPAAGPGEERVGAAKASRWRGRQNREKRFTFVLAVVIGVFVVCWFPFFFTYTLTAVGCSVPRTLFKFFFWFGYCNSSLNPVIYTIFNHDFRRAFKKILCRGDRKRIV
The test is described as follows: Radioligand binding to alpha2-adrenoceptors (alpha2A). To be noted: calculated Ki from radioligand binding assays; read-out: Binding affinity (Ki) alpha2A.

In another test the target is T2, alpha2B-adrenoceptor (Homo sapiens, UniProt P18089).
T2 sequence (P18089 1-450): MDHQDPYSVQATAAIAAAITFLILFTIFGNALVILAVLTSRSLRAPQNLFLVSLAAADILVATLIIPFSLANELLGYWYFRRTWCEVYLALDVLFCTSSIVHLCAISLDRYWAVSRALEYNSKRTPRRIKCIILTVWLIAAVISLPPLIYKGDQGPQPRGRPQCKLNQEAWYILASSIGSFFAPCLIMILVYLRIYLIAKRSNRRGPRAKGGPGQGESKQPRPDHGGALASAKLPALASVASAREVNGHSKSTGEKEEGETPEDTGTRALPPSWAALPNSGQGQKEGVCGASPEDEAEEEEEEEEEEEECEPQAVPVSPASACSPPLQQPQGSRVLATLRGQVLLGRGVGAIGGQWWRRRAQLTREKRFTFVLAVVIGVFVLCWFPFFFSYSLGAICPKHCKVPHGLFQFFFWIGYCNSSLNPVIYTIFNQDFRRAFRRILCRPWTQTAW
Kind of test: Radioligand binding to alpha2-adrenoceptors (alpha2B). To be noted: calculated Ki from radioligand binding assays; read-out: Binding affinity (Ki) alpha2B. The source says:
Examples of the alpha2-adrenoceptor binding affinities of the compounds including in the present invention are shown in the Table 1. Many of these compouinds are high-affinity ligands for all the alpha2-receptors, but some of them display selectivity for the alpha2C-subtype.

The target of a further test is T3, alpha2C-adrenoceptor (Homo sapiens, UniProt P18825).
T3 sequence (P18825 1-462): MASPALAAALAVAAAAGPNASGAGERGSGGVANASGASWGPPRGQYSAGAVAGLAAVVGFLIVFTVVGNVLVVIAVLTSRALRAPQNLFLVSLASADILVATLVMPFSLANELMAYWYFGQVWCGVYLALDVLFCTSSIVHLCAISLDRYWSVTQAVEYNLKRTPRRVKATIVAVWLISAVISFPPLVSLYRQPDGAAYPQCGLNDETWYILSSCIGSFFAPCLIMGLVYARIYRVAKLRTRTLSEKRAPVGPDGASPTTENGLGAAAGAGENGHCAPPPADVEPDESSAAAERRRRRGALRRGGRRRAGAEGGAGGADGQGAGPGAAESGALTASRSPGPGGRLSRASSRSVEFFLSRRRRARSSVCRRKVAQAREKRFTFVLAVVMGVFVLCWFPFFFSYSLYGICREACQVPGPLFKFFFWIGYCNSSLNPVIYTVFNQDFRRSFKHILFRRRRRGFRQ
The test is described as follows: Radioligand binding to alpha2-adrenoceptors (alpha2C).

For a further test, the system named is mice. Kind of test: Antagonism of alpha2-agonist (dexmedetomidine)-induced sedation. It is filed as in vivo. The following applies: dexmedetomidine 50 nmol/kg s.c., antagonist pre-treatment. The method, then:
(veh=vehicle). (***p<0.001, compared to Dex+vehicle)
One of the prominent effects of non-selective alpha2-agonists in rodents is their ability to cause profound sedation. This effect, measured as locomotor inhibition by the alpha2-agonist dexmedetomidine was not modified in mice with genetically altered alpha2C-expression (Scheinin, M. et al., Life Sci 68(19-20) (2001) 2277-85). […] This assumption was tested in experiment, where dexmedetomidine was administered to mice pre-treated with the alpha2C-antagonists compound K or compound L, or the subtype non-selective antagonist atipamezole (Haapalinna, A. et al., Naunyn-Schmiedeberg's Arch. Pharmacol. 356 (1997) 570-582).

Test [1] relates to rats. The test is described as follows: Forced swimming test. To be noted: 10 micromol/kg, compared to vehicle. Format: in vivo. The protocol: Forced swimming test (FST, i.e. Porsolt's test) is generally used in the pharmacological screening of new-antidepressants. In this test, antidepressants increase the animals' activity compared to non-treated controls. […] Therefore, it was tested, whether a selective alfa2C-antagonist would have antidepressant-like activity (e.g. activity-increasing property) in the FST. […] Also the positive control substances desipramine and fluoxetine (clinically effective antidepressant agents) were active.

Test [2] concerns rats. The test is described as follows: Prepulse inhibition of the startle reflex. It is filed as in vivo. The protocol:
FIGS. 4a and 4b show the effect of compounds K and L on the startle reflex and its prepulse inhibition in rats. (Veh=vehicle). Asterisks as in FIG. 1; comparisons were performed between PCP (phencyclidine)+vehicle and PCP+compounds K and L.
FIGS. 5a and 5b show the effect of the non-selective antagonist atiparnezole (ati) on the startle reflex and its prepulse inhibition in rats in the prescence of phencyclidine (PCP); (veh=vehicle). Asterisks as in FIG. 1, compared to the vehicle+PCP -group.
Prepulse-inhibition (PPI) of a startle response refers to the reduction in the startle response caused by a low intensity non-startling stimulus (the prepulse) which is presented shortly before the startle stimulus. PPI can be used as an operational measure of sensorimotor gating and appears to be present in all mammals, including rats and humans (Swerdlow, N. R. et al., The archives of general psychiatry 51 (1994) 139-154). Normally finctioning PPI can be disrupted by psychostimulants, such as d-amphetamine or phencyclidine (PCP), and reversed by clinically effective antipsychotics.
This hypothesis was tested with compounds K and L alone and against PCP disruption of the PPI. […]

Setting [3] is: calculated Ki from radioligand binding assays, read-out: Binding affinity (Ki) alpha2C.

Like-named read-outs stand apart in the source and are kept apart here.

The Ki is a measure of affinity in units of concentration, obtained from inhibition or displacement.

Take `C1=CCN2CCc3c([nH]c4ccccc34)C2C1` (stereo not shown) [Compound I, 1,4,6,7,12,12b-Hexahdroindolo[2,3-a]quinolizine]: the Ki is 0.15 µM on alpha2A-adrenoceptor, 0.46 µM at alpha2B-adrenoceptor and 0.085 µM on alpha2C-adrenoceptor.

As for `CC(C)(C)[C@@H]1CCN2CCc3c([nH]c4ccccc34)[C@@H]2C1` (relative stereo) [Compound Q, 2β-tert-butyl-1,2,3,4,6,7,12,12bα-octahydro-indolo[2,3-a]quinolizine], the Ki at alpha2A-adrenoceptor was 0.027 µM; on alpha2B-adrenoceptor, 0.04 µM; on alpha2C-adrenoceptor (setting [3]), 0.0064 µM.

Turning to `C[C@@]1(O)CCCN2CCc3c([nH]c4ccccc34)[C@H]21` (relative stereo) [Compound H, 1α-Methyl-1,2,3,4,6,7,12,12bβ-octahydroindolo[2,3-a]quinolizin-1-ol], the figures for the inhibition constant (Ki) on alpha2A-adrenoceptor, at alpha2B-adrenoceptor and on alpha2C-adrenoceptor (setting [3]) were 0.28 µM, 0.045 µM and 0.023 µM, respectively.

In the case of `CCC1(c2cnc[nH]2)Cc2ccccc2C1` [atipamezole], the “Antagonism of dexmedetomidine-induced sedation (locomotor inhibition)” value with mice is “effectively antagonised the effect of dexmedetomidine”. Moreover, in the test with rats [1], the “Activity in the forced swimming test” value is recorded as “did not possess antidepressant-like effect”. The “Effect on prepulse inhibition (PPI) disrupted by PCP” value in the test with rats [2] (antagonist 20 min, PCP 10 min before measurement) is on record as “did not enhance PPI”. For the same compound, the “Effect on startle reflex per se (startle without prepulses)” value with rats [2] (in the presence of PCP) is listed as “increased the startle reflex per se”.

With `CC[C@]1(CO)CCCN2CCc3c([nH]c4ccccc34)[C@H]21` (relative stereo) [Compound M, (1β-Ethyl-1,2,3,4,6,7,12,12bβ-octahydroindolo[2,3-a]quinolizin-1-yl)-methanol], the Ki on alpha2A-adrenoceptor was 0.44 µM; at alpha2B-adrenoceptor, 0.47 µM; at alpha2C-adrenoceptor (setting [3]), 0.11 µM.

`OC[C@H]1CCCN2CCc3c([nH]c4ccccc34)[C@H]12` (relative stereo) [Compound O, (1β,2,3,4,6,7,12,12bα-Octahydroindolo’[2,3-a]quinolizin-1-yl)-methanol]: the Ki on alpha2A-adrenoceptor is 0.38 µM; at alpha2B-adrenoceptor, 0.27 µM; at alpha2C-adrenoceptor (setting [3]) it was 0.11 µM.

As for `CC(C)C1(O)CCCN2CCc3c([nH]c4ccccc34)C21` (stereo not drawn) [Compound A, 1α-Isopropyl-1,2,3,4,6,7,12,12bβ-octahydroindolo[2,3-a]quinolizin-1-ol], the Ki was 0.48 µM at alpha2A-adrenoceptor, 0.33 µM on alpha2B-adrenoceptor and 0.061 µM at alpha2C-adrenoceptor (setting [3]).

Turning to `C[C@@H]1CCCN2CCc3c(oc4ccccc34)[C@@H]12` (relative stereo) [Compound G, 1-Methyl-1α,3,4,6,11bβ-hexahydro-2H-11-oxa4a-aza-benzo[a]fluorene], the figures for the inhibition constant Ki at alpha2A-adrenoceptor and at alpha2C-adrenoceptor (setting [3]) were 0.096 µM and 0.022 µM, respectively.

As for `CCC1=C(C)CC2c3[nH]c4ccccc4c3CCN2C1` (stereo not shown) [Compound N, 3-Ethyl-2-methyl-1,4,6,7,12,12b-hexahydro-indolo[2,3-a]quinolizine], the Ki is 0.13 µM at alpha2A-adrenoceptor, 1.11 µM on alpha2B-adrenoceptor and 0.046 µM on alpha2C-adrenoceptor (setting [3]).

In the case of `CCC(C)C1(O)CCCN2CCc3c([nH]c4ccccc34)C21` (stereo not shown) [Compound C, 1-s-Butyl-1,2,3,4,6,7,12,12bβ-octahydro-indolo[2,3-a]quinolizin-1-ol], the inhibitory constant (Ki) at alpha2A-adrenoceptor was 0.71 µM; on alpha2B-adrenoceptor it was 0.58 µM; at alpha2C-adrenoceptor (setting [3]) it was 0.087 µM.

Regarding `CC[C@@H]1CCCN2CCc3c([nH]c4ccccc34)[C@@H]12` (relative stereo) [Compound J, 1β-ethyl-1,2,3,4,6,7,12,12bβ-octabydroindolo[2,3-a]quinolizine], the Ki on alpha2A-adrenoceptor is 0.21 µM; at alpha2B-adrenoceptor, 0.52 µM; at alpha2C-adrenoceptor (setting [3]), 0.075 µM.

Take `CNCCCN1c2ccccc2CCc2ccccc21` [desipramine]: the “Activity in the forced swimming test” value in the test with rats [1] is listed as “increased activity”.

Take `COC1CCN2CCc3c([nH]c4ccccc34)C2C1` (stereo not drawn) [Compound D, 2α-Methoxy-1,2,3,4,6,7,12,12bα-octahydro-indolo[2,3-a]quinolizine]: the Ki at alpha2A-adrenoceptor is 0.029 µM; at alpha2B-adrenoceptor, 0.081 µM; at alpha2C-adrenoceptor (setting [3]), 0.017 µM.

On to `CNCCC(Oc1ccc(C(F)(F)F)cc1)c1ccccc1` (stereo not shown) [fluoxetine], for which, in the test with rats [1], the “Activity in the forced swimming test” value is “increased activity”.

For the compound `CCC1(O)C(C)CCN2CCc3c([nH]c4ccccc34)C21` (stereo not drawn) [Compound B, 1α-Ethyl-2α-methyl-1,2,3,4,6,7,12,12bβ-octahydro-indolo[2,3-a]quinoulzin-1-ol], the Ki at alpha2A-adrenoceptor is 0.13 µM; on alpha2B-adrenoceptor it was 0.16 µM; on alpha2C-adrenoceptor (setting [3]), 0.025 µM.

Consider `OC12CCCCC1CCN1CCc3c([nH]c4ccccc34)C12` (stereo not shown) [Compound F, 2,3,4,4aβ,5,6,7,8,13,13bβ-Decahydro-1H-6a,13-diaza-indeno[1,2-c]phenanthren-13cβ-ol], for which the figures for the Ki at alpha2A-adrenoceptor and on alpha2C-adrenoceptor (setting [3]) were 0.514 µM and 0.07 µM, respectively.

As to `c1ccc2c3c([nH]c2c1)C1CCCCCN1CC3` (stereo not shown) [Compound E, 2,3,4,5,7,8,13,13b-Octahydro-1H-azepino[1′,2′1,2]pyrido[3,4-b]indole], the Ki at alpha2A-adrenoceptor was 0.03 µM; on alpha2B-adrenoceptor, 0.11 µM; on alpha2C-adrenoceptor (setting [3]), 0.026 µM.

`CC(O)C1CCCN2CCc3c([nH]c4ccccc34)C12` (stereo not drawn) [Compound P, 1-(1α2,3,4,6,7,12 12bβ-Octahydroindolo[2,3-a]quinolizin-1-yl)-ethanol]: the Ki at alpha2A-adrenoceptor was 0.29 µM; on alpha2B-adrenoceptor, 0.41 µM; at alpha2C-adrenoceptor (setting [3]), 0.09 µM.

(Values after patent US7592350B2, “Polycyclic compounds as potent alpha2-adrenoceptor antagonists” (Orion Corporation, priority 2002, dated 2009).)
